Data reported in patent publication US20140179664A1, “Heterocyclyl Pyrimidine Analogues As JAK Inhibitors” (Cellzome Limited, priority 2011, published 2014).

Columns and labels:
Assay type in all cases: binding
JAK2 = target: T1, JAK2 (Homo sapiens, UniProt O60674); experiment: Kinobeads assay, JAK2; conditions: mixed Molt4/Ramos lysate, read-out: Inhibition values (IC50) JAK2
T1 construct: endogenous in cells; host or cells: Molt4 (ATCC CRL-1582) and Ramos (ATCC CRL-1596), mixed lysate 1:2
How it was run: (§1)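 IC50s come from capture competition: compound at various concentrations versus an immobilized aminopyrido-pyrimidine ligand for kinases in 1:2 Molt4/Ramos lysate (10 mg/mL), 3 h in a cold room. Captured JAK-family kinases were measured by specific-antibody dot blot with Odyssey infrared detection.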

TYK2 = target: T2, TYK2 (Homo sapiens, UniProt P29597); experiment: Kinobeads assay, TYK2; conditions: mixed Molt4/Ramos lysate, read-out: Inhibition values (IC50) TYK2
T2 construct: endogenous in cells; host or cells: Molt4 (ATCC CRL-1582) and Ramos (ATCC CRL-1596), mixed lysate 1:2
T2 sequence (P29597 whole entry): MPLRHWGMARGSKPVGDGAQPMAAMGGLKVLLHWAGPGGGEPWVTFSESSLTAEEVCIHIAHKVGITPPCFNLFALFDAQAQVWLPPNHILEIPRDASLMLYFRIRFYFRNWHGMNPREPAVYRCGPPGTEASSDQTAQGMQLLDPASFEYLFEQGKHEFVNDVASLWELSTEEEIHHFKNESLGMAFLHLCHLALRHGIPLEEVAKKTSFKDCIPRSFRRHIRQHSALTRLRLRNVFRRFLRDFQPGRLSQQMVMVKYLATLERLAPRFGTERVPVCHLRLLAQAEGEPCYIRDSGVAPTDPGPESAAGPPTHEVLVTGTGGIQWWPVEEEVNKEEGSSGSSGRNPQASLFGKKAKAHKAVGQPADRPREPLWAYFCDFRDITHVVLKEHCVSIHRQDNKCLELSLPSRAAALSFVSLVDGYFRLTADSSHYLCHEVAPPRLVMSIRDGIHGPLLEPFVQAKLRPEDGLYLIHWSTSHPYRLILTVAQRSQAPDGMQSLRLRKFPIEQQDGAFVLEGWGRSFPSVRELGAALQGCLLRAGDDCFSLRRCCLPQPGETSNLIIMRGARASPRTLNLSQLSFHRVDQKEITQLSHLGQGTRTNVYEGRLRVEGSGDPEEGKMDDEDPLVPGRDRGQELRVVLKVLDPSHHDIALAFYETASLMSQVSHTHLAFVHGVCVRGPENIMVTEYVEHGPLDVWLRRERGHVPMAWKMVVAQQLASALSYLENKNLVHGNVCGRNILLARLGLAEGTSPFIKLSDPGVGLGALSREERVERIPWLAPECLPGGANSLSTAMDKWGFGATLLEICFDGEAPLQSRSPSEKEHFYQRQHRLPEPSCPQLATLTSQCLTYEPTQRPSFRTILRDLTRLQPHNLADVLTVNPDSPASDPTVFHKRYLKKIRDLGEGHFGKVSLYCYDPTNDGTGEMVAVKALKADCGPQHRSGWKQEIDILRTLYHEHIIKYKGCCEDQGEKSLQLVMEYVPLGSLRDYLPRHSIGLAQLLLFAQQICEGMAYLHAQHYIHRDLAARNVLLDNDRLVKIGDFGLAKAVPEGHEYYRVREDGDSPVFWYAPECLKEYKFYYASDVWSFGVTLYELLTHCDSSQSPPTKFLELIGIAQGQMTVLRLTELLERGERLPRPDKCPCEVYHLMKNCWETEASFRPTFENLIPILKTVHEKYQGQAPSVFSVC
How it was run: as §1

JAK1 = target: T3, JAK1 (Homo sapiens, UniProt P23458); experiment: Kinobeads assay, JAK1; conditions: mixed Molt4/Ramos lysate, read-out: Inhibition values (IC50) JAK1
T3 construct: endogenous in cells; host or cells: Molt4 (ATCC CRL-1582) and Ramos (ATCC CRL-1596), mixed lysate 1:2
T3 sequence (P23458 whole entry): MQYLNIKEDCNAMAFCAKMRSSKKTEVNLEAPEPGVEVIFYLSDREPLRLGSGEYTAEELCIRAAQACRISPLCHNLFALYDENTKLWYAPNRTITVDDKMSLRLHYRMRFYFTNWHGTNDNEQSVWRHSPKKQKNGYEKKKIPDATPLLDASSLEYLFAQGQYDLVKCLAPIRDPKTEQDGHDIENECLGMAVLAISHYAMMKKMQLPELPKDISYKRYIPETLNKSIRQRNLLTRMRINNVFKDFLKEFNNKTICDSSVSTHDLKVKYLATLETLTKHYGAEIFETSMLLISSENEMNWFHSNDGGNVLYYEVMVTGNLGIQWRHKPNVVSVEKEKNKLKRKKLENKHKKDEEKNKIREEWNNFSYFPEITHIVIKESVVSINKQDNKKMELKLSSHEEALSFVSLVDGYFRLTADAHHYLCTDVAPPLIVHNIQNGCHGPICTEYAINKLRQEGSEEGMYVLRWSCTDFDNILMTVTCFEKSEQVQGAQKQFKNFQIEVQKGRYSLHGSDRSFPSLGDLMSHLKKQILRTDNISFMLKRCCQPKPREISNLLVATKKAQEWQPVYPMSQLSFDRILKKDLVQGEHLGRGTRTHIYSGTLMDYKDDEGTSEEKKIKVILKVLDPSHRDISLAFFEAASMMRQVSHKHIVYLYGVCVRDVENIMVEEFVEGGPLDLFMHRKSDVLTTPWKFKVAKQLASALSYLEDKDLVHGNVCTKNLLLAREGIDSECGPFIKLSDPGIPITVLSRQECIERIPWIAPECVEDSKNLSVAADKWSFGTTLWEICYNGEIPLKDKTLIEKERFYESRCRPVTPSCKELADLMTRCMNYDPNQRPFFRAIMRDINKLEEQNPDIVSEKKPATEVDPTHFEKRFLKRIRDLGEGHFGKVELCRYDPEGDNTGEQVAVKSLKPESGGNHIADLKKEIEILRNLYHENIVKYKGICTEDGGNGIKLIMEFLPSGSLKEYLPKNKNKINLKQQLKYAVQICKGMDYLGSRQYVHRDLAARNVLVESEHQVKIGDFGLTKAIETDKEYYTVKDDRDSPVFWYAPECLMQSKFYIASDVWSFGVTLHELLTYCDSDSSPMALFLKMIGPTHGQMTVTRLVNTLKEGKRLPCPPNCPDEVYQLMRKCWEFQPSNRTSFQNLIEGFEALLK
How it was run: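 Competitive pulldown in combined Molt4 and Ramos lysates (1 vs 2 volumes): compound, as a nine-point 1:3 series, and kinobeads were shaken together for 3 hours in a cold room. Captured JAK1 was quantified on an infrared-read antibody dot blot and IC50 calculated. Controls held 2% DMSO without compound.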

T1 sequence (O60674 whole entry): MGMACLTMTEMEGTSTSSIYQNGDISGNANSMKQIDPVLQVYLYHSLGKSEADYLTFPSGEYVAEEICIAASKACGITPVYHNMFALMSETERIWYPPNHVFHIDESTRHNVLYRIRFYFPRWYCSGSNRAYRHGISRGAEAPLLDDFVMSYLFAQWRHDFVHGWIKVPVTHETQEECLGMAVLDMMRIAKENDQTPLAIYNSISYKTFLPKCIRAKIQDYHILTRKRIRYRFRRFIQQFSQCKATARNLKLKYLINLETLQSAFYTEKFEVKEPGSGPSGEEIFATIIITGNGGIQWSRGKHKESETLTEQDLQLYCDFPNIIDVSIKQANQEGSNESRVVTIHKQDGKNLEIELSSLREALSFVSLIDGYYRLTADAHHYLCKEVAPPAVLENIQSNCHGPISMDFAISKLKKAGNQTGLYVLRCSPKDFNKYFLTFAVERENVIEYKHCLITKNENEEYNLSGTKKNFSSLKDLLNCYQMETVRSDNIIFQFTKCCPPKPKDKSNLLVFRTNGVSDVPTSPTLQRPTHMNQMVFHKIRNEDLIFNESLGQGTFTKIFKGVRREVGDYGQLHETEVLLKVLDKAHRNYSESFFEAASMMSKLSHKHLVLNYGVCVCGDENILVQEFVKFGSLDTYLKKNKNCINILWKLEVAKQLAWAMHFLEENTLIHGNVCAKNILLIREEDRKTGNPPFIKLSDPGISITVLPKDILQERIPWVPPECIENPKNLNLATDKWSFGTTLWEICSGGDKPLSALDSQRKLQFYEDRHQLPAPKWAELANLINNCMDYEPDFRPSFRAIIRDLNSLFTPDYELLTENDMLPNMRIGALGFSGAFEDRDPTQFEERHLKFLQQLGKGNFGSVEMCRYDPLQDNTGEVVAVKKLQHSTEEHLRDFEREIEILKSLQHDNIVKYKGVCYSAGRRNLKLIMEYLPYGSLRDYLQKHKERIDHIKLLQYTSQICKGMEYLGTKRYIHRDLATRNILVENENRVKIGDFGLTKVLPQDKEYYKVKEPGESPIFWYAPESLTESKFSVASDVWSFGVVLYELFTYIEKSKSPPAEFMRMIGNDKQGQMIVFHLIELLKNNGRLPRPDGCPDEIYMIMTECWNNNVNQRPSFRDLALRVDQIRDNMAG

| Structure (SMILES) | IC50 (JAK2) | IC50 (TYK2) | IC50 (JAK1) |
| --- | --- | --- | --- |
| Cn1cc(Nc2ncc(Cl)c(NC(CO)c3cccc(Br)c3)n2)cn1 (stereo not drawn) [Compound 52] | ≥ 10 µM | 1 to 10 µM | 1 to 10 µM |
| Cn1cc(Nc2ncc(Cl)c(NC(CO)c3cccc(N4CC5(COC5)C4)c3)n2)cn1 (stereo not drawn) [Compound 53] | ≥ 10 µM | ≥ 10 µM | > 10 µM |
| Cn1cc(Nc2ncc(Cl)c(N[C@@H](CO)c3ccccc3)n2)cn1 [Compound 54] | ≥ 10 µM | 1 to 10 µM | > 10 µM |
| COC[C@@H](Nc1nc(Nc2cnn(C)c2)ncc1Cl)c1ccccc1 [Compound 55] | ≥ 10 µM | ≥ 10 µM | > 10 µM |
| NC(=O)Cn1cc(Nc2ncc(Cl)c(N[C@H](CO)c3ccccc3)n2)cn1 [Compound 56] | 1 to 10 µM | 0.1 to 1 µM | 0.1 to 1 µM |
| CC(C)(O)Cn1cc(Nc2ncc(Cl)c(NC(CO)c3ccccc3F)n2)cn1 (stereo not drawn) [Compound 57] | ≥ 10 µM | 1 to 10 µM | 1 to 10 µM |
| Cn1cc(Nc2ncc(Cl)c(N[C@H](CO)c3ccccc3F)n2)cn1 [Compound 58] | 1 to 10 µM | 1 to 10 µM | 1 to 10 µM |
| Cn1cc(Nc2ncc(Cl)c(N[C@H](C(=O)NC3CCCC3)c3ccccc3)n2)cn1 [Compound 59] | ≥ 10 µM | ≥ 10 µM | > 10 µM |
| O=C(NC1CCCC1)[C@@H](Nc1nc(Nc2cnn(CCO)c2)ncc1Cl)c1ccccc1 [Compound 60] | ≥ 10 µM | 1 to 10 µM | 1 to 10 µM |
| CC(C)(O)Cn1cc(Nc2ncc(Cl)c(NC(CO)c3cccc(F)c3)n2)cn1 (stereo not drawn) [Compound 61] | 1 to 10 µM | 1 to 10 µM | 1 to 10 µM |
| CC(C)(O)Cn1cc(Nc2ncc(Cl)c(NC(CO)c3c(F)cccc3F)n2)cn1 (stereo not drawn) [Compound 62] | ≥ 10 µM | 1 to 10 µM | 1 to 10 µM |
| OCCn1cc(Nc2ncc(Cl)c(N[C@@H](CO)c3ccccc3)n2)cn1 [Compound 63] | ≥ 10 µM | 1 to 10 µM | 1 to 10 µM |
| OCCCn1cc(Nc2ncc(Cl)c(NC(CO)c3ccccc3F)n2)cn1 (stereo not drawn) [Compound 64] | 1 to 10 µM | 1 to 10 µM | 1 to 10 µM |
| OCC[C@@H](Nc1nc(Nc2cnn(CCO)c2)ncc1Cl)c1ccccc1 [Compound 65] | 1 to 10 µM | 1 to 10 µM | 1 to 10 µM |
| CNC(=O)Cn1cc(Nc2ncc(Cl)c(N[C@H](CCO)c3ccccc3)n2)cn1 [Compound 66] | 1 to 10 µM | 1 to 10 µM | 1 to 10 µM |
| CC(C)NC(=O)Cn1cc(Nc2ncc(Cl)c(N[C@H](CO)c3ccccc3)n2)cn1 [Compound 67] | 1 to 10 µM | 0.1 to 1 µM | 0.1 to 1 µM |
| O=C(Cn1cc(Nc2ncc(Cl)c(N[C@H](CO)c3ccccc3)n2)cn1)NC1CC1 [Compound 68] | 1 to 10 µM | 0.1 to 1 µM | 0.1 to 1 µM |
| Cn1cc(Nc2ncc(Cl)c(NC(CO)c3cccc(-c4cnn(C)c4)c3)n2)cn1 (stereo not drawn) [Compound 69] | ≥ 10 µM | ≥ 10 µM | > 10 µM |
| CN(CC#N)C(=O)Cn1cc(Nc2ncc(Cl)c(N[C@H](CO)c3ccccc3)n2)cn1 [Compound 70] | 1 to 10 µM | 0.1 to 1 µM | 0.1 to 1 µM |
| Cn1cc(Nc2ncc(Cl)c(NC(CO)c3ccc(F)cc3)n2)cn1 (stereo not drawn) [Compound 71] | ≥ 10 µM | 1 to 10 µM | 1 to 10 µM |
| OCCn1cc(Nc2ncc(Cl)c(NC(CO)c3ccc(F)cc3)n2)cn1 (stereo not drawn) [Compound 72] | ≥ 10 µM | 1 to 10 µM | 1 to 10 µM |
| CC(C)(C(N)=O)n1cc(Nc2ncc(Cl)c(N[C@H](CO)c3ccccc3F)n2)cn1 [Compound 73] | 1 to 10 µM | 1 to 10 µM | 1 to 10 µM |

Other lines, results leading:

| IC50 (JAK2) | IC50 (TYK2) | IC50 (JAK1) | Structure (SMILES) |
| --- | --- | --- | --- |
| 1 to 10 µM | 1 to 10 µM | 0.1 to 1 µM | COc1ccccc1[C@@H](CO)Nc1nc(Nc2cnn(C)c2)ncc1Cl [Compound 74] |
| 1 to 10 µM | 1 to 10 µM | 1 to 10 µM | OC[C@@H](Nc1nc(Nc2cn[nH]c2)ncc1Cl)c1ccccc1 [Compound 75] |
| 1 to 10 µM | 0.1 to 1 µM | 0.1 to 1 µM | COc1ccccc1[C@@H](CO)Nc1nc(Nc2cnn(CCO)c2)ncc1Cl [Compound 76] |
| 1 to 10 µM | 0.1 to 1 µM | 0.1 to 1 µM | OCCn1cc(Nc2ncc(Cl)c(N[C@H](CO)c3ccccc3F)n2)cn1 [Compound 77] |
| 1 to 10 µM | 0.1 to 1 µM | < 0.1 µM | NC(=O)Cn1cc(Nc2ncc(Cl)c(N[C@H](CO)c3ccccc3F)n2)cn1 [Compound 78] |
| 1 to 10 µM | 1 to 10 µM | 0.1 to 1 µM | OC[C@@H](Nc1nc(Nc2cn[nH]c2)ncc1Cl)c1ccccc1F [Compound 79] |
| 1 to 10 µM | 0.1 to 1 µM | 0.1 to 1 µM | OCCn1cc(Nc2ncc(Cl)c(N[C@H](CO)c3ccccn3)n2)cn1 [Compound 80] |
| 1 to 10 µM | 0.1 to 1 µM | 0.1 to 1 µM | NC(=O)Cn1cc(Nc2ncc(Cl)c(N[C@H](CO)c3ccccn3)n2)cn1 [Compound 81] |
| ≥ 10 µM | 1 to 10 µM | 1 to 10 µM | COc1cccc([C@@H](CO)Nc2nc(Nc3cnn(C)c3)ncc2Cl)c1 [Compound 82] |
| 1 to 10 µM | 1 to 10 µM | 1 to 10 µM | COc1cccc([C@@H](CO)Nc2nc(Nc3cnn(CCO)c3)ncc2Cl)c1 [Compound 83] |
| ≥ 10 µM | 1 to 10 µM | 1 to 10 µM | COc1cccc([C@@H](CO)Nc2nc(Nc3cnn(CC(N)=O)c3)ncc2Cl)c1 [Compound 84] |
| 1 to 10 µM | 1 to 10 µM | 1 to 10 µM | Cc1cnc(Nc2cnn(CC(F)F)c2)nc1N[C@H](CO)c1cc(F)cc(F)c1 [Compound 167] |
| ≥ 10 µM | 1 to 10 µM | 1 to 10 µM | Cc1cnc(Nc2cnn(CC(F)F)c2)nc1NC(CO)c1c(F)cccc1F (stereo not drawn) [Compound 168] |
| 1 to 10 µM | 0.1 to 1 µM | 1 to 10 µM | Cc1cnc(Nc2cnn(CC(=O)N3CCOCC3)c2)nc1NC(CO)c1c(F)cccc1F (stereo not drawn) [Compound 169] |
| 1 to 10 µM | 1 to 10 µM | 1 to 10 µM | CNC(=O)Cn1cc(Nc2ncc(Cl)c(N[C@H](CO)c3cccnc3)n2)cn1 [Compound 170] |
